# How the values were obtained:
# [1] = tested on: human breast cancer cell line MX-1 xenograft tumor; test: Subcutaneous xenograft tumor model of human breast cancer cell line MX-1; type: in vivo, BALB/c nude mice
# Excerpt: • 1. Experimental objective: To evaluate the in vivo efficacy of the compound in a subcutaneous xenograft tumor model of human breast cancer cell line MX-1 in nude mice. • 2. Reagent • RPMI-1640 medium (22400-089, Gibco), fetal bovine serum (FBS) (10099-141C, Gibco) • Phosphate buffer (PBS, 10010-023, Gibco), HPMC (D180HB4005, Shanghai Colorcon Coating Technology Ltd.) • 0.25% Trypsin-EDTA (25200-056, Gibco), Pen Strep (P/S) (15140-122, Gibco) • 3. Experimental operations and data processing • 3.1 Animals: BALB/c nude mice, 8-12 weeks old, female, purchased from the Laboratory Animal Business Department of Shanghai Institute of Planned Parenthood Research. • 3.2 Cell culture and cell suspension preparation • a. A vial of MX-1 cells was taken from a cell bank, the cells were thawed with RPMI-1640 medium (RPMI-1640+10% FBS), and the thawed cells were placed in a cell culture flask (with the cell type, date, the name of the culture operator, etc., being marked on the wall of the flask), which were placed in a CO2 incubator for culturing (wherein the temperature of the incubator was 37° C., and the CO2 concentration was 5%). • b. The cells were passaged every three days, and after passage, the cells were placed in the CO2 incubator to continue the culture. This process was repeated until the cell number met the requirements for in vivo efficacy. • c. The cultured cells were collected, counted using a full-automatic cell counter, and resuspended with PBS on the basis of the counting results to prepare a cell suspension (at a density of 3×10^7/mL), which was then placed in an ice box for later use. • 3.3 Cell inoculation • a. Before inoculation, the nude mice were marked with disposable universal ear tags for mice and rats. • b. At the time of inoculation, the cell suspension was mixed uniformly, 0.1-1 mL of the cell suspension was aspirated using a 1 mL syringe with air bubbles expelled, and the syringe was then placed on an ice bag for later use. • c. The nude mouse was secured with the left hand, the right dorsal area near the right shoulder (inoculation site) of the nude mouse was disinfected with a 75% alcohol cotton ball, and inoculation was initiated after 30 seconds. • d. The experimental nude mice were inoculated sequentially (0.1 mL of cell suspension per mouse). • 3.4 Tumor measurement, grouping and administration in tumor-bearing mice • a. Tumor was measured on days 10-18 after inoculation depending on the tumor growth, and the tumor size was calculated.
# tumor volume (mm^3)=length (mm)×width (mm)×width (mm)/2 Tumor volume calculation: • b. According to the body weight of tumor-bearing mice and the size of the tumor, the mice were grouped by random grouping. • c. According to the grouping results, the test drug was started to be administered (administration method: oral administration; administration volume: 10 mL/kg; administration frequency: once/day; administration cycle: 21 days; vehicle: 0.5% HPMC). • d. Tumor measurement and weighing were performed twice a week after starting administration of test drugs. • e. The animals were euthanized at the end of the experiment. • f. Data processing was performed using software such as GraphPad Prism. The tumor inhibitory efficacy of the compound was evaluated by TGI (%) and ΔT/ΔC (%). ΔT/ΔC (%)=(T−T0)/(C−C0)×100, where T and C are the tumor volumes of the treatment group and the vehicle control group at the end of the experiment, respectively, and T0 and C0 are the tumor volumes of the treatment group and the vehicle control group at the beginning of the experiment, respectively. Tumor growth inhibition (TGI) (%)=100−ΔT/ΔC (%). Tumor growth inhibition (TGI) (%)=100−(T−T0)/T0×100 when tumor regression occurs • 4. Experimental conclusion
# [2] = tested on: human ovarian cancer OV-10-0060 xenograft tumor; test: Subcutaneous xenograft tumor model of human ovarian cancer OV-10-0060; type: in vivo, BALB/c nude mice
# Excerpt: • 1. Experimental objective: To evaluate the in vivo efficacy of the compound in a subcutaneous xenograft tumor model of human ovarian cancer OV-10-0060 in nude mice. • 2. Reagent • HPMC (A1921068, Shanghai Aladdin Biochemical Technology Co., Ltd.), DMEM medium (11995-065, Gibco) • 3. Experimental operations and data processing • 3.1 Animals: BALB/c nude mice, 6-8 weeks old, female, purchased from the Laboratory Animal Business Department of Shanghai Institute of Planned Parenthood Research. • 3.2 Animal modeling • Tumor tissues were harvested from ovarian cancer xenograft model OV-10-0060 tumor-bearing mice and cut into tumor fragments with a diameter of 2-3 mm, which were subcutaneously inoculated into the right anterior scapula region of BALB/c nude mice. • 3.3 Tumor measurement and grouping in tumor-bearing mice • Prior to drug administration, all animals were weighed, and tumor volumes were measured using a vernier caliper. The tumor volume was calculated as: tumor volume (mm^3)=length (mm)×width (mm)×width (mm)/2. According to the body weight of tumor-bearing mice and the size of the tumor, the mice were grouped by random grouping. • 3.4 Administration in tumor-bearing mice • According to the grouping results, the test drug was started to be administered (administration method: oral administration; administration volume: 10 mL/kg; administration frequency: once/day; administration cycle: 28 days; vehicle: 0.5% HPMC). Tumor measurement and weighing were performed twice a week after starting administration of test drugs. The animals were euthanized at the end of the experiment. • 3.5 Data processing • Data processing was performed using software such as GraphPad Prism. The tumor inhibitory efficacy of the compound was evaluated by TGI (%) and ΔT/ΔC (%). ΔT/ΔC (%)=(T−T0)/(C−C0)×100, where T and C are the tumor volumes of the treatment group and the vehicle control group at the end of the experiment, respectively, and T0 and C0 are the tumor volumes of the treatment group and the vehicle control group at the beginning of the experiment, respectively. Tumor growth inhibition (TGI) (%)=100−ΔT/ΔC (%). Tumor growth inhibition (TGI) (%)=100−(T−T0)/T0×100 when tumor regression occurs • 4. Experimental results and conclusions
# [3] = MX-1, 3 mg/kg oral once/day, Day 21
# [4] = OV-10-0060, 10 mg/kg oral once/day, Day 27
# [5] = MX-1, 100 mg/kg oral once/day, Day 21
# [6] = OV-10-0060, 100 mg/kg oral once/day, Day 27
SMILES,"Tumor volume (Mean ± SEM) ([1]; MX-1, 3 mg/kg oral once/day, Day 0)","T/C [1, 3]","TGI [1, 3]","Tumor volume (Mean ± SEM) [1, 3]","Tumor volume (Mean ± SEM) ([2]; OV-10-0060, 10 mg/kg oral once/day, Day 0)","T/C [2, 4]","TGI [2, 4]","Tumor volume (Mean ± SEM) [2, 4]","Tumor volume (Mean ± SEM) ([1]; MX-1, 100 mg/kg oral once/day, Day 0)","T/C [1, 5]","TGI [1, 5]","Tumor volume (Mean ± SEM) [1, 5]","Tumor volume (Mean ± SEM) ([2]; OV-10-0060, 100 mg/kg oral once/day, Day 0)","T/C [2, 6]","TGI [2, 6]","Tumor volume (Mean ± SEM) [2, 6]"
CCc1cc2ncc(CN3CCN(c4ccc(C(=O)NC)nc4)CC3)cc2[nH]c1=O [AZD5305],122 ± 17 mm^3,34.13%,70.43%,642 ± 132 mm^3,124 ± 4 mm^3,61.08%,41.19%,"1,378 ± 99 mm^3",,,,,,,,
O=C(c1cc(Cc2n[nH]c(=O)c3ccccc23)ccc1F)N1CCN(C(=O)C2CC2)CC1 [Olaparib],,,,,,,,,122 ± 14 mm^3,88.08%,12.73%,1656 ± 289 mm^3,124 ± 4 mm^3,79.24%,22.00%,"1,787 ± 158 mm^3"

# Source: patent US20260256756A1, “USE OF PIPERIDINE ALKENE COMPOUND IN PREPARATION OF DRUG FOR TREATING CANCER” (JIANGSU HANSOH PHARMACEUTICAL GROUP CO., LTD., priority 2023, published 2026)
